Experimental data taken from patent publication US20240002365A1, “PYRIDAZINE AND 1,2,4-TRIAZINE DERIVATIVES AS FGFR KINASE INHIBITORS” (BETA PHARMA, INC., priority 2020, published 2024).
“And” between values parts separate entries of the source, which are not always exact repeats. Equal entries are not always repeated. Where two headings read alike, the source gives them in different places.

Experiment: Pharmacokinetics assay in male CD-1 mice (plasma, LC-MS/MS, non-compartmental analysis);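 on Plasma concentration: plasma concentration of test compound at each sampling time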
Assay type: in vivo
Conditions: for MRT inf: read-out: MRT0-inf; for MRT last: read-out: MRT0-last
Description: Pharmacokinetics Assay. A pharmacokinetics assay of Example 1 was performed by WuXi AppTec Inc., 6 Cedarbrook Drive, Cranbury, NJ 08512 USA. This study was conducted in 6 to 8-week-old male CD-1 mice (Hilltop Laboratories). Animals were group housed during acclimation and throughout the study. The animal room environment was controlled according to facility operation (temperature: 20 to 26° C.; relative humidity: 30 to 70%; lighting: 12 hour light/dark cycle). Temperature, relative humidity, and lighting were monitored by PointView Environmental Monitoring System. Animals were fed certified pellet diet (Certified Rodent Diet #5002, LabDiet). The diet lot number and specifications were recorded in study notebook and archived at WuXi AppTec. Water (reverse osmosis) was provided to the animals ad libitum. The animals were fasted overnight and food was returned 4 hours post-dose.
An appropriate amount of Example compound 1 above (N^1-(3,5-Dimethoxyphenyl)-N^2-isopropyl-N^1-(3-(1-methyl-1H-pyrazol-4-yl)cinnolin-6-yl)ethane-1,2-diamine) was accurately weighed and mixed with an appropriate volume of 20% hydroxypropyl-(3-cyclodextrin; 80% H2O (w/v) to give either a clear solution or uniform suspension (PO only). Blood samples of about 30-40 μL were collected from peripheral veins at pre-defined time points. into pre-chilled micro-tubes containing K2EDTA as anti-coagulant and kept on ice until centrifugation. The blood samples were centrifuged at 4° C., 3000g for 15 min within half an hour of collection. Plasma was collected into 96-well plate(s), quickly frozen on dry ice and stored at −70±10° C. until LC-MS/MS analysis. The LC-MS/MS analytical method is described as follows:
The pharmacokinetics of Example Compound 1 were analyzed using the Phoenix WinNonlin software (version 6.3) based on the non-compartmental analysis model and the results are shown below in FIGS. 1 and 2 and in Tables 1 and 2. M7, M8, M9, etc. refer to particular mouse subjects used in the study.

[1] = IV 1.00 mg/kg, mouse, individual mice M7-M9
[2] = PO 10.0 mg/kg, mouse, individual mice M10-M12
[3] = male, CD-1, mouse, plasma, iv, 1 mg/kg, IV 1.00 mg/kg, individual mice M7-M9
[4] = male, CD-1, mouse, plasma, iv, 1 mg/kg, IV 1.00 mg/kg, mean
[5] = male, CD-1, mouse, plasma, po, 10 mg/kg, PO 10.0 mg/kg, mean

- Plasma concentration (IV 1.00 mg/kg, mouse, 299 s, individual mice M7-M9): 294 ng/mL and 444 ng/mL
- Plasma concentration (IV 1.00 mg/kg, mouse, 0.250 h, individual mice M7-M9): 197 ng/mL and 143 ng/mL and 292 ng/mL
- Plasma concentration (IV 1.00 mg/kg, mouse, 0.500 h, individual mice M7-M9): 80.8 ng/mL and 86.8 ng/mL and 206 ng/mL
- Plasma concentration (IV 1.00 mg/kg, mouse, 1.00 h, individual mice M7-M9): 58.0 ng/mL and 29.3 ng/mL and 86.4 ng/mL
- Plasma concentration (IV 1.00 mg/kg, mouse, 2.00 h, individual mice M7-M9): 15.2 ng/mL and 8.83 ng/mL and 17.9 ng/mL
- Plasma concentration (IV 1.00 mg/kg, mouse, 4.00 h, individual mice M7-M9): 3.17 ng/mL and 3.64 ng/mL
- Plasma concentration (IV 1.00 mg/kg, mouse, 8.00 h, individual mice M7-M9): 1.73 ng/mL and 1.42 ng/mL
- Plasma concentration (IV 1.00 mg/kg, mouse, 24.0 h, individual mice M7-M9): 2.21 ng/mL and BQL
- AUC0-inf [1]: 197 ng·h/mL and 305 ng·h/mL
- AUC0-last [1]: 188 ng·h/mL and 303 ng·h/mL
- AUCExtra [1]: 1.15% and 4.42% and 0.637%
- AUMCExtra [1]: 10.6% and 26.9% and 6.89%
- C0 [1]: 421 ng/mL and 547 ng/mL
- Cl [1]: 84.8 mL/min/kg and 54.7 mL/min/kg
- MRT0-inf [1]: 2.80 h and 4.58 h and 0.866 h
- MRT0-last [1]: 2.53 h and 3.50 h and 0.812 h
- T1/2 [1]: 1.34 h and 2.72 h and 0.948 h
- Tlast [1]: 24.0 h (2×) and 8.00 h
- Vdss [1]: 12.2 L/kg and 23.3 L/kg and 2.84 L/kg
- AUCExtra (IV 1.00 mg/kg, mouse, mean): 2.07%
- AUMCExtra (IV 1.00 mg/kg, mouse, mean): 14.8%
- Tlast (IV 1.00 mg/kg, mouse, mean): 18.7 h
- Plasma concentration (PO 10.0 mg/kg, mouse, 0.167 h, individual mice M10-M12): 43.6 ng/mL and 46.8 ng/mL and 147 ng/mL
- Plasma concentration (PO 10.0 mg/kg, mouse, 0.500 h, individual mice M10-M12): 71.0 ng/mL and 102 ng/mL and 269 ng/mL
- Plasma concentration (PO 10.0 mg/kg, mouse, 1.00 h, individual mice M10-M12): 47.6 ng/mL and 51.9 ng/mL and 170 ng/mL
- Plasma concentration (PO 10.0 mg/kg, mouse, 2.00 h, individual mice M10-M12): 14.1 ng/mL and 29.7 ng/mL and 89.5 ng/mL
- Plasma concentration (PO 10.0 mg/kg, mouse, 4.00 h, individual mice M10-M12): 12.5 ng/mL and 9.57 ng/mL and 22.8 ng/mL
- Plasma concentration (PO 10.0 mg/kg, mouse, 6.00 h, individual mice M10-M12): 20.7 ng/mL and 7.02 ng/mL and 4.44 ng/mL
- Plasma concentration (PO 10.0 mg/kg, mouse, 8.00 h, individual mice M10-M12): 13.2 ng/mL and 4.84 ng/mL and 1.77 ng/mL
- Plasma concentration (PO 10.0 mg/kg, mouse, 24.0 h, individual mice M10-M12): 7.49 ng/mL and 1.56 ng/mL and BQL
- AUCExtra [2]: 31.7% and 8.42% and 0.593%
- AUMCExtra [2]: 69.7% and 41.4% and 3.41%
- Cmax [2]: 71.0 ng/mL and 102 ng/mL and 269 ng/mL
- MRT0-inf [2]: 20.3 h and 7.47 h and 1.65 h
- MRT0-last [2]: 9.01 h and 4.78 h and 1.60 h
- T1/2 [2]: 14.3 h and 8.81 h and 1.03 h
- Tlast [2]: 24.0 h (2×) and 8.00 h
- AUCExtra (PO 10.0 mg/kg, mouse, mean): 13.6%
- AUMCExtra (PO 10.0 mg/kg, mouse, mean): 38.2%
- Tlast (PO 10.0 mg/kg, mouse, mean): 18.7 h
- concentration at 0.083 h (male, CD-1, mouse, plasma, iv, 1 mg/kg, IV 1.00 mg/kg, 299 s, individual mice M7-M9): 341 ng/mL
- concentration at 0.083 h (male, CD-1, mouse, plasma, iv, 1 mg/kg, IV 1.00 mg/kg, 299 s, mean): 360 ng/mL
- concentration at 0.25 h (male, CD-1, mouse, plasma, iv, 1 mg/kg, IV 1.00 mg/kg, 0.250 h, mean): 211 ng/mL
- concentration at 0.5 h (male, CD-1, mouse, plasma, iv, 1 mg/kg, IV 1.00 mg/kg, 0.500 h, mean): 125 ng/mL
- concentration at 1 h (male, CD-1, mouse, plasma, iv, 1 mg/kg, IV 1.00 mg/kg, 1.00 h, mean): 57.9 ng/mL
- concentration at 2 h (male, CD-1, mouse, plasma, iv, 1 mg/kg, IV 1.00 mg/kg, 2.00 h, mean): 14 ng/mL
- concentration at 4 h (male, CD-1, mouse, plasma, iv, 1 mg/kg, IV 1.00 mg/kg, 4.00 h, individual mice M7-M9): 3.72 ng/mL
- concentration at 4 h (male, CD-1, mouse, plasma, iv, 1 mg/kg, IV 1.00 mg/kg, 4.00 h, mean): 3.51 ng/mL
- concentration at 8 h (male, CD-1, mouse, plasma, iv, 1 mg/kg, IV 1.00 mg/kg, 8.00 h, individual mice M7-M9): 1.65 ng/mL
- concentration at 8 h (male, CD-1, mouse, plasma, iv, 1 mg/kg, IV 1.00 mg/kg, 8.00 h, mean): 1.6 ng/mL
- concentration at 24 h (male, CD-1, mouse, plasma, iv, 1 mg/kg, IV 1.00 mg/kg, 24.0 h, individual mice M7-M9): 1.36 ng/mL
- concentration at 24 h (male, CD-1, mouse, plasma, iv, 1 mg/kg, IV 1.00 mg/kg, 24.0 h, mean): 1.79 ng/mL
- AUC(0-t) [3]: 226 ng·h/mL
- clearance [3]: 73 mL/min/kg
- AUC0-inf (male, CD-1, mouse, plasma, iv, 1 mg/kg, IV 1.00 mg/kg, individual mice M7-M9, read-out: AUC0-inf): 228 ng·h/mL
- C0 (male, CD-1, mouse, plasma, iv, 1 mg/kg, IV 1.00 mg/kg, individual mice M7-M9, read-out: C0): 448 ng/mL
- AUC(0-t) [4]: 239 ng·h/mL
- clearance [4]: 70.8 mL/min/kg
- half-life [4]: 1.67 h
- AUC0-inf (male, CD-1, mouse, plasma, iv, 1 mg/kg, IV 1.00 mg/kg, mean, read-out: AUC0-inf): 243 ng·h/mL
- C0 (male, CD-1, mouse, plasma, iv, 1 mg/kg, IV 1.00 mg/kg, mean, read-out: C0): 472 ng/mL
- MRT inf [4]: 2.75 h
- MRT last [4]: 2.28 h
- Vd (male, CD-1, mouse, plasma, iv, 1 mg/kg, IV 1.00 mg/kg, mean, read-out: Vdss): 12.8 L/kg
- concentration at 0.167 h (male, CD-1, mouse, plasma, po, 10 mg/kg, PO 10.0 mg/kg, 0.167 h, mean): 79.1 ng/mL
- concentration at 0.5 h (male, CD-1, mouse, plasma, po, 10 mg/kg, PO 10.0 mg/kg, 0.500 h, mean): 147 ng/mL
- concentration at 1 h (male, CD-1, mouse, plasma, po, 10 mg/kg, PO 10.0 mg/kg, 1.00 h, mean): 89.8 ng/mL
- concentration at 2 h (male, CD-1, mouse, plasma, po, 10 mg/kg, PO 10.0 mg/kg, 2.00 h, mean): 44.4 ng/mL
- concentration at 4 h (male, CD-1, mouse, plasma, po, 10 mg/kg, PO 10.0 mg/kg, 4.00 h, mean): 15 ng/mL
- concentration at 6 h (male, CD-1, mouse, plasma, po, 10 mg/kg, PO 10.0 mg/kg, 6.00 h, mean): 10.7 ng/mL
- concentration at 8 h (male, CD-1, mouse, plasma, po, 10 mg/kg, PO 10.0 mg/kg, 8.00 h, mean): 6.6 ng/mL
- concentration at 24 h (male, CD-1, mouse, plasma, po, 10 mg/kg, PO 10.0 mg/kg, 24.0 h, mean): 4.53 ng/mL
- AUC(0-t) [5]: 330 ng·h/mL
- half-life [5]: 8.05 h
- AUC0-inf (male, CD-1, mouse, plasma, po, 10 mg/kg, PO 10.0 mg/kg, mean, read-out: AUC0-inf): 389 ng·h/mL
- Cmax (male, CD-1, mouse, plasma, po, 10 mg/kg, PO 10.0 mg/kg, mean, read-out: Cmax): 147 ng/mL
- MRT inf [5]: 9.81 h
- MRT last [5]: 5.13 h
- bioavailability (male, CD-1, plasma, PO 10.0 mg/kg vs IV 1.00 mg/kg, mouse, calculated from AUC): 13.8%
- Tmax (male, CD-1, plasma, PO 10.0 mg/kg, mouse, individual mice M10-M12): 0.5 h
Compound: COc1cc(OC)cc(N(CCNC(C)C)c2ccc3nnc(-c4cnn(C)c4)cc3c2)c1 [Example 1, N^1-(3,5-Dimethoxyphenyl)-N^2-isopropyl-N^1-(3-(1-methyl-1H-pyrazol-4-yl)cinnolin-6-yl)ethane-1,2-diamine]
- AUC0-inf [2]: 488 ng·h/mL and 235 ng·h/mL and 443 ng·h/mL
- AUC0-last [2]: 333 ng·h/mL and 216 ng·h/mL and 441 ng·h/mL
